Data on one compound can be found in ChEMBL document CHEMBL2062517, “Design, synthesis, and antiviral activity of entry inhibitors that target the CD4-binding site of HIV-1” (J Med Chem, 2012).

Holding throughout (format): cell-based
Data set [1] in a line: Inhibition of X4-tropic HIV1 HXB2 gp120-mediated entry into human TZM-b1 cells expressing CD4,CXCR4,CCR5,luciferase and beta-galactosidase after 3 days by single cycle neutralization assay. The conditions noted are these: Human immunodeficiency virus 1, HXB2, TZM-b1, 72 h.
Data set [2] deals with MT2. Description: Cytotoxicity against human MT2 cells at >41 uM after 4 days by XTT assay. The conditions noted are these: mt2, 96 h. (In general: Tetrazolium assays rely on reduction of a dye to a coloured formazan, in cell work by metabolically active cells.)
Data set [3] is described as follows: Inhibition of X4-tropic HIV1 3B gp120-mediated entry into human MT2 cells assessed as Inhibition of p24 production incubated overnight followed by compound wash-out measured after 4 days post-infection by multi-cycle neutralization assay. The conditions noted are these: Human immunodeficiency virus 1, 3B, MT2, 96 h.
Data set [4] is described as follows: Cytotoxicity against human TZM-b1 cells after 3 days by XTT assay. The conditions noted are these: TZM-b1 cells.
Data set [5] has as its system MT2. The data set can be described thus: Cytotoxicity against human MT2 cells after 4 days by XTT assay. The conditions noted are these: mt2, 96 h.

Where only a bound is given, the exact number is not on record here.

`Cc1nc(C(NC(=O)C(=O)Nc2ccc(Cl)c(F)c2)C2CCCCN2)sc1CCO` (mixture of isomers): the IC50 (commonly the point on the concentration scale where inhibition reaches its midpoint) in data set [1] was 1.98 µM; in data set [3] it was 3.5 µM. Besides, in the data set on MT2 [2], the Activity is recorded as 10%. Further, in data set [4], it took 61 µM to reach half-maximal cytotoxicity (CC50 at 72 h). The CC50 (in general, the concentration giving 50% cytotoxicity) in the data set with MT2 [5] is over 41 µM.
